Test results reported in patent publication US4220755A, “Fortimicin B derivatives and process for production thereof” (Abbott Laboratories, priority 1976, dated 1980).
In brackets after ≈: the same amount, converted by molar mass.

How the values were obtained:
[1] = test system: Pseudomonas aeruginosa R4 KY8511; assay: MIC, agar dilution method, pH 7.2; format: cell-based; conditions: R4KY8511, pH 7.2, P. aeruginosa R4 KY8511, 4**: gentamicin, producing acetyltransferase type I, read-out: Minimum inhibition concentration (MIC)
Description: (§1) Measurement was carried out according to the agar dilution method, using a medium of pH 8.0, or the Japanese Antibiotic Medicament Standard, using a medium of pH 7.2 Units are in mcg/ml.
(§2) 4: gentamicin, producing acetyltransferase type I.

[2] = test system: Escherichia coli R19 KY8348; assay: MIC, agar dilution method, pH 7.2; format: cell-based; conditions: R19KY8348, pH 7.2, E. coli R19 KY8348, 4**: gentamicin, producing acetyltransferase type I, read-out: Minimum inhibition concentration (MIC)
Description: as §1, §2

[3] = test system: Pseudomonas aeruginosa R5 KY8512; assay: MIC, agar dilution method, pH 7.2; format: cell-based; conditions: R5KY8512, pH 7.2, P. aeruginosa R5 KY8512, 6**: neomycin, producing phosphotransferase type I and type II, read-out: Minimum inhibition concentration (MIC)
Description: as §1
6: neomycin, producing phosphotransferase type I and type II.

[4] = test system: Escherichia coli R20 KY8349; assay: MIC, agar dilution method, pH 7.2; format: cell-based; conditions: R20KY8349, pH 7.2, E. coli R20 KY8349, 5**: neomycin, producing phosphotransferase type I, read-out: Minimum inhibition concentration (MIC)
Description: as §1
5: neomycin, producing phosphotransferase type I.

Providencia sp 164 = assay: MIC, agar dilution method, pH 7.2; format: cell-based; conditions: pH 7.2; Providencia sp 164; 7**: gentamicin, producing acetyltransferase type II; read-out: Minimum inhibition concentration (MIC)
Description: as §1
7: gentamicin, producing acetyltransferase type II.

[5] = test system: Klebsiella pneumoniae 3020 Y-60; assay: MIC, agar dilution method, pH 7.2; format: cell-based; conditions: 3020Y60; pH 7.2; Klebsiella pneumoniae 3020 Y-60; 1**: gentamicin, producing adenylsynthetase; read-out: Minimum inhibition concentration (MIC)
Description: as §1
(§3) **1: gentamicin, producing adenylsynthetase.

Escherichia coli 76-2 = assay: MIC, agar dilution method, pH 7.2; format: cell-based; conditions: Escherichia coli, 762; pH 7.2; E. coli 76-2; 1**: gentamicin, producing adenylsynthetase; read-out: Minimum inhibition concentration (MIC)
Description: as §1, §3

[6] = test system: Escherichia coli R18 KY8321; assay: MIC, agar dilution method, pH 7.2; format: cell-based; conditions: R18KY8321, E. coli R18 KY8321, 2**: gentamicin, producing adenylsynthetase and neomycin phosphotransferase type II, read-out: Minimum inhibition concentration (MIC)
Description: as §1
2: gentamicin, producing adenylsynthetase and neomycin phosphotransferase

[7] = test system: Klebsiella pneumoniae KY4275 ATCC10031; assay: MIC, agar dilution method, pH 8.0; format: cell-based; conditions: ATCC10031; pH 8.0; Klebsiella pneumoniae KY4275; read-out: Minimum inhibition concentration (MIC), KP
Description: as §1
K.P.: Klebsiella pneumoniae KY4275 ATCC10031.

[8] = test system: Escherichia coli R17 Z343; assay: MIC, agar dilution method, pH 7.2; format: cell-based; conditions: R17Z343, pH 7.2, E. coli R17 Z343, 3**: kanamycin, producing acetyltransferase, read-out: Minimum inhibition concentration (MIC)
Description: as §1
(§4) 3: kanamycin, producing acetyltransferase.

[9] = test system: Pseudomonas aeruginosa R9 KY8516; assay: MIC, agar dilution method, pH 7.2; format: cell-based; conditions: R9KY8516, pH 7.2, P. aeruginosa R9 KY8516, 3**: kanamycin, producing acetyltransferase, read-out: Minimum inhibition concentration (MIC)
Description: as §1, §4

Serratia marcescens 1065 = assay: MIC, agar dilution method, pH 7.2; format: cell-based; conditions: pH 7.2; Serratia marcescens 1065; 3**: kanamycin, producing acetyltransferase; read-out: Minimum inhibition concentration (MIC)
Description: as §1, §4

Shigella sonnei ATCC9290 = assay: MIC, agar dilution method, pH 7.2; format: cell-based; conditions: read-out: Minimum inhibition concentration (MIC)
Description: as §1

[10] = test system: Staphylococcus aureus 209-P; assay: MIC, agar dilution method, pH 7.2; format: cell-based; conditions: pH 7.2; Staphylococcus aureus 209-P; read-out: Minimum inhibition concentration (MIC)
Description: as §1

Escherichia coli NIHTC-2 = assay: MIC, agar dilution method, pH 7.2; format: cell-based; conditions: NIHTC2; pH 7.2; Escherichia coli NIHTC-2; read-out: Minimum inhibition concentration (MIC)
Description: as §1

[11] = test system: Eschericihia coli GN2411-5; assay: MIC, agar dilution method, pH 7.2; format: cell-based; conditions: Escherichia coli; pH 7.2; E. coli GN2411-5; read-out: Minimum inhibition concentration (MIC)
Description: as §1

[12] = test system: Klebsiella pneumoniae KY4274; assay: MIC, agar dilution method, pH 7.2; format: cell-based; conditions: pH 7.2; Klebsiella pneumoniae KY4274; read-out: Minimum inhibition concentration (MIC)
Description: as §1

[13] = test system: Staphylococcus aureus Smith (A); assay: MIC, agar dilution method, pH 7.2; format: cell-based; conditions: pH 7.2; Staphylococcus aureus Smith (A); read-out: Minimum inhibition concentration (MIC)
Description: as §1

[14] = test system: Pseudomonas aeruginosa BMH# 1; assay: MIC, agar dilution method, pH 7.2; format: cell-based; conditions: pH 7.2; Pseudomonas aeruginosa BMH# 1; read-out: Minimum inhibition concentration (MIC)
Description: as §1

[15] = test system: Pseudomonas aeruginosa UCLA 4184; assay: MIC, agar dilution method, pH 7.2; format: cell-based; conditions: UCLA4184; pH 7.2; Pseudomonas aeruginosa UCLA 4184; read-out: Minimum inhibition concentration (MIC)
Description: as §1

[16] = test system: Salmonella enteritidis G-14; assay: MIC, agar dilution method, pH 7.2; format: cell-based; conditions: Salmonella enterica; pH 7.2; Salmonella enteritidis G-14; read-out: Minimum inhibition concentration (MIC)
Description: as §1

Proteus vulgaris JJ = assay: MIC, agar dilution method, pH 7.2; format: cell-based; conditions: pH 7.2; Proteus vulgaris JJ; read-out: Minimum inhibition concentration (MIC)
Description: as §1

[17] = test system: Proteus vulgaris KY4277 ATCC6897; assay: MIC, agar dilution method, pH 8.0; format: cell-based; conditions: ATCC6897; pH 8.0; Proteus vulgaris KY4277; read-out: Minimum inhibition concentration (MIC), PV
Description: as §1

[18] = test system: Shigella sonnei KY4281 ATCC9290; assay: MIC, agar dilution method, pH 8.0; format: cell-based; conditions: ATCC9290; pH 8.0; Shigella sonnei KY4281; read-out: Minimum inhibition concentration (MIC), SS
Description: as §1

[19] = test system: Eschericia coli KY4271 ATCC26; assay: MIC, agar dilution method, pH 8.0; format: cell-based; conditions: Escherichia coli, ATCC26; pH 8.0; E. coli KY4271; read-out: Minimum inhibition concentration (MIC), EC
Description: as §1
E.C.: Eschericia coli KY4271 ATCC26

Bacillus subtilis KY4273 = assay: MIC, agar dilution method, pH 8.0; format: cell-based; conditions: pH 8.0; Bacillus subtilis KY4273; read-out: Minimum inhibition concentration (MIC), BS
Description: as §1
B.S.: Bacillus subtilis KY4273

[20] = test system: Staphylococcus a ureus 226; assay: MIC, agar dilution method, pH 7.2; format: cell-based, Staphylococcus aureus; conditions: pH 7.2; Staphylococcus aureus 226; read-out: Minimum inhibition concentration (MIC)
Description: as §1

[21] = test system: Staphylococcus aureus KY4279 ATCC6538P; assay: MIC, agar dilution method, pH 8.0; format: cell-based; conditions: pH 8.0, Staphylococcus aureus KY4279, read-out: Minimum inhibition concentration (MIC), SA
Description: as §1
S.A.: Staphylococcus aureus KY4279 ATCC6538P

Molecule `CO[C@H]1[C@@H](O)[C@H](N)[C@@H](O[C@H]2O[C@H]([C@H](C)N)CC[C@H]2N)[C@H](O)[C@@H]1N(C)C(=O)CNC(N)=O` [Compound 3, 4-N-hydantoylfortimicin B, reference compound] has an MIC [1] greater than 100 µg/mL, an MIC [2] greater than 100 µg/mL and an MIC [3] of 50 µg/mL (≈ 111 µM). The MIC [4] was 12.5 µg/mL (≈ 27.9 µM), the MIC (Providencia sp 164) was 100 µg/mL (≈ 223 µM) and the MIC [5] was 100 µg/mL (≈ 223 µM). It also gave an MIC (Escherichia coli 76-2) of 12.5 µg/mL (≈ 27.9 µM), an MIC [6] of 6.25 µg/mL (≈ 13.9 µM) and an MIC [7] of 0.63 µg/mL (≈ 1.4 µM). The MIC [8] was 3.12 µg/mL (≈ 6.96 µM), the MIC [9] was greater than 100 µg/mL and the MIC (Serratia marcescens 1065) was 50 µg/mL (≈ 111 µM). The MIC (Shigella sonnei ATCC9290) was 25 µg/mL (≈ 55.7 µM), the MIC [10] was 3.12 µg/mL (≈ 6.96 µM) and the MIC (Escherichia coli NIHTC-2) was 12.5 µg/mL (≈ 27.9 µM). For the same molecule, the MIC [11] was 25 µg/mL (≈ 55.7 µM), the MIC [12] was 12.5 µg/mL (≈ 27.9 µM) and the MIC [13] was 6.25 µg/mL (≈ 13.9 µM). It also gave an MIC [14] of 100 µg/mL (≈ 223 µM), an MIC [15] of 50 µg/mL (≈ 111 µM) and an MIC [16] of 25 µg/mL (≈ 55.7 µM). For the same molecule, the MIC (Proteus vulgaris JJ) was 12.5 µg/mL (≈ 27.9 µM), the MIC [17] was 0.63 µg/mL (≈ 1.4 µM) and the MIC [18] was 1.25 µg/mL (≈ 2.79 µM). The MIC [19] was 0.08 µg/mL (≈ 0.178 µM), the MIC (Bacillus subtilis KY4273) was 0.32 µg/mL (≈ 0.713 µM) and the MIC [20] was 6.25 µg/mL (≈ 13.9 µM). For the same molecule, the MIC [21] was 0.16 µg/mL (≈ 0.357 µM).
